Holding throughout (format): biochemical
Assay [1] addresses T1, yeast alcohol dehydrogenase (ADH) (Saccharomyces cerevisiae, UniProt P00330).
T1 construct: purchased Sigma
T1 sequence (P00330 2-348 limits assumed): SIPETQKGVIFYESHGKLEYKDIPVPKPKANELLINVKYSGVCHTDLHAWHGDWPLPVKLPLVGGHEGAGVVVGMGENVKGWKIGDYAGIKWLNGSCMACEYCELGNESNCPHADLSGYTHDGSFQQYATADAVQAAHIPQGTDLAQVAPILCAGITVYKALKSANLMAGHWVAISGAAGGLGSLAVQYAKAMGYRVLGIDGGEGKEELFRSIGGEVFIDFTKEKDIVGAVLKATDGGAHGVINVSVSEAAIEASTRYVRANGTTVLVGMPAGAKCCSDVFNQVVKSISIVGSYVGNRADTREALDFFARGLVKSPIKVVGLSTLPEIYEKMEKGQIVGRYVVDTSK
Put plainly: ADH oxidation-induced aggregation (turbidity at 360 nm), Cu(OP)2. To be noted: for inhibition index: ADH 1 mg/mL, 37° C., Cu(OP)2. Here is the method:
(§1) Bovine insulin [Sigma, St. Louis, Mo., USA] was dissolved in phosphate saline (PBS) (50 mM sodium biphosphate, 100 mM sodium chloride), pH 7.0, bovine alpha-lactalbumin [Sigma] in 50 mM sodium phosphate, 100 mM sodium chloride and 2 mM EDTA, pH 6.2, chicken egg white lysozyme [Sigma] in 100 mM Tris, 1 mM EDTA, pH 8.2, human acidic fibroblast growth factor (FGF-1) in 6.2 mM sodium biphosphate, 120 mM sodium chloride, pH 7.2, porcine somatotropin (pST) [provided by Pfizer, Inc., Groton, Conn., USA] in 10 mM phosphate, pH 6. 1, human apolactoferrin (HLF) [Sigma] in 20 mM HEPES, 154 mM NaCl, pH 7.4, porcine heart citrate synthase (CS) in 40 mM HEPES, 50 mM KCl, 10 mM (NH4)2SO4 mM potassium acetate, pH 7.8, and yeast alcohol dehydrogenase (ADH) [Sigma] in pH 7.0 PBS. Selection of buffer solutions was based on an extensive series of preliminary studies to obtain appropriate insolubilization kinetics as described below.
(§2) Copper O-phenanthroline (1,10-phenanthroline) was prepared by mixing copper sulfate hexahydrate [Fisher] and o-phenanthroline [Sigma] in a 1:2 ratio. 1 M Dithiothreitol (DTT) was prepared at pH 7.0 PBS. Polyethylene glycol (M.W. 8000, Union Carbide, Danbury, Conn., USA) (PEG) was prepared at 20 mg/mL in 10 mM phosphate, pH 6.1.
(§3) The following compounds were obtained from Sigma and used without further purification: oxalic acid, sodium malonate, succinic acid, glutaric acid, adipic acid, pimelic acid, suberic acid, azelaic acid, guanidine hydrochloride, ammonium formate, beta-alanine, 4-aminobutyric acid, 5-aminovaleric acid, 6-aminocaproic acid, 7-aminoheptanoic acid, hydrazine, ethylenediamine, 1,3-diaminopropane, 1,4-diaminobutane, 1,5-diaminopentane, 1,6-diaminohexane, 1,7-diaminoheptane, Glu-Glu, Glu-Lys, Lys-Lys, diglycine, triglycine, tetraglycine, pentaglycine, and hexaglycine. […] Triglycine and tetraglycine were dissolved in pH 8.6 PBS, while pentaglycine and hexaglycine were dissolved in pH 10.6 PBS.
(§4) Each was either dissolved in pH 7.0 PBS, or pH 6.1 10 mM phosphate, and adjusted to the same pH.
(§5) Protein aggregation was monitored for 1 hour at 360 nm using an HP8453 UV-visible spectrophotometer system [Hewlett Packard, Germany]. […] Insulin (0.25 mg/mL (4.39E-5 M)) aggregation was monitored at 25° C. after addition of potential inhibitors and 20 μL of 1 M DTT (1.27E-4 M). Alpha-lactabumin (0.4 mg/mL (2.82E-5 M)) aggregation was monitored at 37° C. in the presence of 20 μL of 1 M DTT (1.27E-4 M). Lysozyme (0.4 mg/mL (2.86E-5 M)) aggregation was monitored at 25° C. in the presence of 20 μL of 1 M DTT (1.27E-4 M). FGF-1 (50 μg/mL (3.12E-6 M)) aggregation was monitored at 50° C. Porcine somatotropin (1.27 mg/mL (5.76E-5 M)) aggregation was monitored at 60° C. in the presence of PEG 8000 (20 mg/mL) which was included to enhance the protein association process through a simple exclusion volume effect. HLF (0.4 mg/mL (5.23E-6 M)) aggregation was monitored at 43° C. in the presence of 1.27E-4 M DTT. Citrate synthase (96 μg/mL (9.80E-7 M)) aggregation was monitored at45° C. ADH (1 mg/mL (7.14E-6 M)) was monitored at 37° C. following the addition of 7.76E-5 M Cu(OP)2. Aggregation was compared to protein in the absence of the particular dipolar compound. After stirring, experiments were initiated by the addition of proteins followed by stressing reagents to 1 cm pathlength cuvettes employing a seven-position thermostatted sample holder that was cycled at 30-second intervals. Alternatively, a microtiter plate reader was employed under the same conditions in a 96 well format.
(§6) All optical density (OD)360nm versus time results were exported into Excel [Microsoft] for data analysis.

The target of a further assay is T2, Bovine insulin (Bos taurus, UniProt P01317).
T2 construct: purchased Sigma, St. Louis, Mo., USA
Put plainly: Insulin aggregation (turbidity at 360 nm) induced by DTT. To be noted: Insulin 0.25 mg/mL, 25° C., DTT; compound 100×; standard deviation in parenthesis. Here is the method:
as §1, §2, §3, §4, §5, §6

In assay [2] the target is T3, chicken egg white lysozyme (Gallus gallus, UniProt P00698).
T3 construct: chicken egg white lysozyme [Sigma]; purchased Sigma; host or cells: egg white
The assay can be described thus: Lysozyme aggregation (turbidity at 360 nm) induced by DTT. As to conditions: Lysozyme 0.4 mg/mL, 25° C., DTT; compound 1,000×; standard deviation in parenthesis. How it is done: as §1, §2, §3, §4, §5, §6

A further assay deals with T4, bovine alpha-lactalbumin (Bos taurus, UniProt P00711).
T4 construct: purchased Sigma
T4 sequence (P00711 20-142): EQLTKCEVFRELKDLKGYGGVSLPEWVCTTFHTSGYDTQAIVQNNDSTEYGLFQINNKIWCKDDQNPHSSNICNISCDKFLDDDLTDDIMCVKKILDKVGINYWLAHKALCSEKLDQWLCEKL
The assay can be described thus: Alpha-lactalbumin aggregation (turbidity at 360 nm) induced by DTT. To be noted: α Lactalbumin 0.4 mg/mL, 37° C., DTT; compound 1,000×; standard deviation in parenthesis. How it is done: as §1, §2, §3, §4, §5, §6

Assay [3] deals with human acidic fibroblast growth factor (FGF-1) (Homo sapiens, UniProt P05230). Put plainly: FGF-1 thermal aggregation (turbidity at 360 nm). To be noted: FGF-1 50 μg/mL, 50° C., standard deviation in parenthesis. Here is the method:
as §1, §3, §4, §5
(§7) All optical density (OD)360nm versus time results were exported into Excel [Microsoft] for data analysis. […] The maximum rate of change in OD versus time plots (r) was used to determine the rate of the reaction from the slope at this point.

The target of assay [4] is T5, human apolactoferrin (HLF) (Homo sapiens, UniProt P02788).
T5 construct: purchased Sigma
Put plainly: HLF aggregation (turbidity at 360 nm) induced by DTT. As to conditions: HLF 0.4 mg/mL, 43° C., DTT, head 10,000×, standard deviation in parenthesis. Here is the method: as §1, §2, §3, §4, §5, §6

For assay [5], the target named is T6, porcine heart citrate synthase (CS) (Sus scrofa, UniProt P00889).
T6 construct: porcine heart citrate synthase (CS); from tissue; host or cells: porcine heart
T6 sequence (P00889 28-464): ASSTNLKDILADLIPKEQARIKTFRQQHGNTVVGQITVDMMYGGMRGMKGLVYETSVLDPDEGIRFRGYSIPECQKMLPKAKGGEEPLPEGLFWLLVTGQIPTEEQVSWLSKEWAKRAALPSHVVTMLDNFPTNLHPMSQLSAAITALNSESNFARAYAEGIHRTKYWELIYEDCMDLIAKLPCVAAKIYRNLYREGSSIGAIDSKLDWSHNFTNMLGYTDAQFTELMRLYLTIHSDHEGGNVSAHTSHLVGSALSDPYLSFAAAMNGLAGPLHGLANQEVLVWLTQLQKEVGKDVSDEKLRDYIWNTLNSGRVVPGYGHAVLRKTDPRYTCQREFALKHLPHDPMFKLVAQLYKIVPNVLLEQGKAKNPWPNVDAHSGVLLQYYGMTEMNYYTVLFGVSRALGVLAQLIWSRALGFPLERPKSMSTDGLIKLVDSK
The assay can be described thus: Citrate synthase thermal aggregation (turbidity at 360 nm). To be noted: for inhibition index: CS 96 μg/mL, 45° C., standard deviation in parenthesis. Here is the method: as §1, §3, §4, §5, §7

The target of assay [6] is T7, porcine somatotropin (pST) (Sus scrofa, UniProt P01248).
T7 construct: purchased Pfizer, Inc., Groton, Conn., USA (provided, not bought)
T7 sequence (P01248 27-216): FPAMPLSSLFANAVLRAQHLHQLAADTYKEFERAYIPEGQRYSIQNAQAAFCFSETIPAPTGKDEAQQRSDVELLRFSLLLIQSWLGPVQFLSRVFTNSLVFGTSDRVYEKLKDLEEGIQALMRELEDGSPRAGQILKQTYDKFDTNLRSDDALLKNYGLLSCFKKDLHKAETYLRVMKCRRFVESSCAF
Put plainly: Porcine somatotropin aggregation (turbidity at 360 nm) with PEG 8000. To be noted: pST 1.27 mg/mL, 60° C., standard deviation in parenthesis. Here is the method: as §1, §2, §3, §4, §5, §6

The mark [7] stands for this setting: compound 10,000X molar excess, Infinite = complete inhibition of aggregation over one hour.
Setting [8] is: compound 1,000X, standard deviation in parenthesis.

T2 sequence (P01317 25-54 limits assumed): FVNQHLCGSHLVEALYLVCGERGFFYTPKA
T2 sequence (P01317 85-105 limits assumed): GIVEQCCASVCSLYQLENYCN
T5 sequence (P02788 20-710): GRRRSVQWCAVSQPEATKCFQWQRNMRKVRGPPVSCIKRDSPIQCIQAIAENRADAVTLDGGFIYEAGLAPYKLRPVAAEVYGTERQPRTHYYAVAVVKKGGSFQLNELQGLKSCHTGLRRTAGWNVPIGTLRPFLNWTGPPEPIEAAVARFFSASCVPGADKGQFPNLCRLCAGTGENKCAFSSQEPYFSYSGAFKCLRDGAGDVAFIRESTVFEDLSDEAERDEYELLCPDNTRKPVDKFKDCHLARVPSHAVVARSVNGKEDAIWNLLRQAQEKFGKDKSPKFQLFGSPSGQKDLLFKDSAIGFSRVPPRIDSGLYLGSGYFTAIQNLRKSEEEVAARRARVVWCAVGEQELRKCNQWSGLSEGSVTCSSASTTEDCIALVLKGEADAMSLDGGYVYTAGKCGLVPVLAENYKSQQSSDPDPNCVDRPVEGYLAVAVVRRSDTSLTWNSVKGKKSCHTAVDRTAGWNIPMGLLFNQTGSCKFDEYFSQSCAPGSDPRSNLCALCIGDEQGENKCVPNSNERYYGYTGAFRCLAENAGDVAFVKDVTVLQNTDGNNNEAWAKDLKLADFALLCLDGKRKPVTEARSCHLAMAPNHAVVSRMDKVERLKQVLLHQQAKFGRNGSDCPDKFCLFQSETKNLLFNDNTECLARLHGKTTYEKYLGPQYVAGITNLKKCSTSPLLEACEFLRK
T3 sequence (P00698 19-147): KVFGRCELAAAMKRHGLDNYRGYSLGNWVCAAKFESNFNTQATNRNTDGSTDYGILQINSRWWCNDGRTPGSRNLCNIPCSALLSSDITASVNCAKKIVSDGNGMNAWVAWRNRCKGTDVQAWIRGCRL
Sequence of human acidic fibroblast growth factor (FGF-1) (P05230 whole entry): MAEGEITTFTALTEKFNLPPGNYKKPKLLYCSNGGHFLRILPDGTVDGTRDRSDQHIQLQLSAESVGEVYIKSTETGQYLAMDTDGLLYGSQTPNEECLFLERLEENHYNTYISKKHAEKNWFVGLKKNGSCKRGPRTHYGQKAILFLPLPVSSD

Take `[Cl-].[Na+]` [NaCl]: the “inhibition of ADH aggregation, in words” value in assay [1] (FIG. 1) is recorded as “negligible effect on aggregation”.

For the compound `N.O=CO` [ammonium formate], the inhibition index is 1.2 (0.5) at Bovine insulin; 1.5 (0.3) in assay [2]; 0.8 (0.3) on bovine alpha-lactalbumin; 0.9 (0.1) in assay [3] (compound 1,000×); 1.3 (0.3) in assay [3] (compound 10,000×); 5.8 (1.1) in assay [4] (second HLF column). In addition, the inhibition index in assay [5] (compound 10,000X) is 0.6 (0.0); in assay [5] (compound 50,000X) it was 1.2 (0.3); in assay [1] (setting [7]), 1.2 (0.1).

Take `O=C(O)CCCCCCCC(=O)O` [azelaate, azelaic acid]: the inhibition index on Bovine insulin is given as 1.5 (0.4); in assay [2], 1.0 (0.2); at bovine alpha-lactalbumin, 2.3 (0.6); in assay [3] (compound 1,000×) it was 1.9 (0.2); in assay [3] (compound 10,000×), 6.1 (2.6); in assay [4] (second HLF column) it was 1455.0. The inhibition index in assay [5] (compound 10,000X) is reported as 0.7 (0.6); in assay [5] (compound 50,000X), 4.4 (1.8); in assay [6] (compound 100X), 0.6 (0.0); in assay [6] (compound 2,000X), 1.3 (0.3).

For the compound `Cl.N=C(N)N` [guanidine HCl, guanidine hydrochloride], the inhibition index on Bovine insulin was 0.9 (0.4); in assay [2], 0.9 (0.2); on bovine alpha-lactalbumin, 1.7 (0.6); in assay [3] (compound 1,000×), 1.2 (0.2); in assay [3] (compound 10,000×), 2.8 (0.9); in assay [4] (second HLF column) it was 0.9 (0.1). Moreover, the figures for the inhibition index in assay [5] (compound 10,000X), in assay [5] (compound 50,000X) and in assay [1] (setting [7]) were 0.6 (0.4), 0.4 (0.1) and 0.2 (0.1), respectively.

“CH3—NH2-(Glu)^−-(Gly)n-(Glu)^−-COO^− [CH3—NH2—(E)^−—(G)2—(E)^−—COO^−]”: the inhibition index at Bovine insulin was 1.0 (0.2); in assay [2] it was 0.8 (0.4); on bovine alpha-lactalbumin it was 0.4 (0.2); in assay [3] (compound 1,000×), 2.5 (0.6); in assay [4] (first HLF column) it was 1.7 (0.2); in assay [5] (compound 1,000X), 0.9 (0.2). Besides, the inhibition index in assay [1] (setting [8]) is on record as 1.1 (0.1).

With “CH3—NH2-(Glu)^−-(Gly)n-(Glu)^−-COO^− [CH3—NH2—(E)^−—(G)4—(E)^−—COO^−]”, the inhibition index is given as 1.4 (0.6) on Bovine insulin; 0.9 (0.3) in assay [2]; 0.7 (0.4) at bovine alpha-lactalbumin; 1.6 (0.2) in assay [3] (compound 1,000×); 1.7 (0.3) in assay [4] (first HLF column); 0.7 (0.1) in assay [5] (compound 1,000X). In assay [1] (setting [8]), the inhibition index is reported as 1.4 (0.1).

Take “CH3—NH2-(Glu)^−-(Gly)n-(Glu)^−-COO^− [CH3—NH2—(E)^−—(G)5—(E)^−—COO^−]”: the inhibition index on Bovine insulin is 1.3 (0.1); in assay [2] it was 0.1 (0.1); in assay [3] (compound 1,000×), 12.3 (0.4); in assay [4] (first HLF column) it was 1.6 (0.1); in assay [5] (compound 1,000X), 0.6 (0.1); in assay [1] (setting [8]) it was 1.2 (0.1).

Glu-Lys: the inhibition index on Bovine insulin was 1.0 (0.1); in assay [2], 1.0 (0.4); at bovine alpha-lactalbumin it was 1.0 (0.1); in assay [3] (compound 1,000×), 1.6 (0.3); in assay [3] (compound 10,000×) it was 11.0 (3.0); in assay [4] (first HLF column) it was 9.8 (0.3). Further, the inhibition index in assay [4] (second HLF column) was 44.5; in assay [5] (compound 1,000X), 0.8 (0.2); in assay [5] (compound 10,000X) it was 1.6 (0.2); in assay [5] (compound 50,000X), 21.5; in assay [1] (setting [8]) it was 1.7 (0.1); in assay [1] (setting [7]), 18.4. Further, in assay [5], the “inhibition of citrate synthase aggregation, in words” value was “Potent inhibitors”.

The values above are taken from US20030125234A1, “Alteration of protein stability” (priority 2001, published 2003).
